Reference: PubChem BioAssay (NCI)
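Results reflect a 48-hour exposure of cells in 96-well plates to compound at five concentrations. TGI marks complete inhibition of growth.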

Key:
Assay in all cases: NCI-60 cell line screen, 48 h
[1] = system: M19-MEL melanoma
[2] = system: SNB-78 CNS
[3] = system: K-562 leukemia
[4] = system: U251 CNS
[5] = system: NCI-H226 lung
[6] = system: RPMI-8226 leukemia
[7] = system: SK-OV-3 ovarian
[8] = system: KM12 colon
[9] = system: NCI-H460 lung
[10] = system: SNB-75 CNS
[11] = system: UO-31 renal
[12] = system: MALME-3M melanoma
[13] = system: M14 melanoma
[14] = system: ACHN renal
[15] = system: DMS 273 small cell lung
[16] = system: SN12C renal
[17] = system: SF-539 CNS
[18] = system: 786-0 renal
[19] = system: HL-60(TB) leukemia
[20] = system: UACC-62 melanoma
[21] = system: NCI-H23 lung
[22] = system: A549 NSCLC
[23] = system: LXFL 529 NSCLC
[24] = system: RXF 393 renal
[25] = system: HCC-2998 colon
[26] = system: NCI-H522 lung
[27] = system: HCT-15 colon
[28] = system: HOP-92 NSCLC
[29] = system: HOP-18 NSCLC
[30] = system: SK-MEL-5 melanoma
[31] = system: SW-620 colon
[32] = system: MOLT-4 leukemia
[33] = system: SF-295 CNS
[34] = system: OVCAR-8 ovarian
[35] = system: IGROV1 ovarian
[36] = system: A498 renal
[37] = system: DMS 114 small cell lung
[38] = system: DLD-1 colon
[39] = system: OVCAR-3 ovarian
[40] = system: CAKI-1 renal
[41] = system: COLO 205 colon
[42] = system: HT29 colon
[43] = system: LOX IMVI melanoma
[44] = system: CCRF-CEM leukemia
[45] = system: SK-MEL-28 melanoma
[46] = system: TK-10 renal
[47] = system: EKVX NSCLC
[48] = system: HCT-116 colon
[49] = system: OVCAR-5 ovarian
[50] = system: OVCAR-4 ovarian
[51] = system: SNB-19 CNS
[52] = system: SF-268 CNS
[53] = system: SR leukemia
[54] = system: SK-MEL-2 melanoma
[55] = system: HOP-62 NSCLC
[56] = system: UACC-257 melanoma

## C=CCCCCCCCC(O)C1C[C@H](O)C(CCCCC)O1 (some centres undefined)
[1]
  TGI: 35.9 µM
[2]
  TGI: 45.1 µM
[3]
  TGI: 47.6 µM
[4]
  TGI: 31.3 µM
[5]
  TGI: 29.6 µM
[6]
  TGI: 43.9 µM
[7]
  TGI: 43.2 µM
[8]
  TGI: 41.3 µM
[9]
  TGI: 37.2 µM
[10]
  TGI: 29.7 µM
[11]
  TGI: 31.9 µM
[12]
  TGI: 33.5 µM
[13]
  TGI: 34.6 µM
[14]
  TGI: 36.6 µM
[15]
  TGI: 32.8 µM
[16]
  TGI: 36 µM
[17]
  TGI: 30.7 µM
[18]
  TGI: 32.2 µM
[19]
  TGI: 37.4 µM
[20]
  TGI: 29.6 µM
[21]
  TGI: 36.8 µM
[22]
  TGI: 37.5 µM
[23]
  TGI: 29 µM
[24]
  TGI: 37.7 µM
[25]
  TGI: 33.4 µM
[26]
  TGI: 35.1 µM
[27]
  TGI: 40 µM
[28]
  TGI: 30.7 µM
[29]
  TGI: 32.1 µM
[30]
  TGI: 34.7 µM
[31]
  TGI: 41.7 µM
[32]
  TGI: 43.6 µM
[33]
  TGI: 33 µM
[34]
  TGI: 40.2 µM
[35]
  TGI: 42.2 µM
[36]
  TGI: 36.1 µM
[37]
  TGI: 37 µM
[38]
  TGI: 31 µM
[39]
  TGI: 32.7 µM
[40]
  TGI: 34.6 µM
[41]
  TGI: 34.5 µM
[42]
  TGI: 35.6 µM
[43]
  TGI: 36.1 µM
[44]
  TGI: 41.6 µM
[45]
  TGI: 33.7 µM
[46]
  TGI: 34.8 µM
[47]
  TGI: 36.7 µM
[48]
  TGI: 34.5 µM

## O=C1C=C(c2[nH]c3ccccc3c2C2=CC(=O)c3ccccc3C2=O)C(=O)c2ccccc21
[1]
  TGI: 35.4 µM
[2]
  TGI: > 100 µM
[3]
  TGI: 60.1 µM
[4]
  TGI: > 100 µM
[5]
  TGI: > 100 µM
[6]
  TGI: > 100 µM
[7]
  TGI: > 100 µM
[8]
  TGI: > 100 µM
[9]
  TGI: > 100 µM
[10]
  TGI: 57.6 µM
[11]
  TGI: > 100 µM
[13]
  TGI: > 100 µM
[14]
  TGI: > 100 µM
[15]
  TGI: > 100 µM
[17]
  TGI: > 100 µM
[18]
  TGI: > 100 µM
[49]
  TGI: > 100 µM
[19]
  TGI: 44.4 µM
[20]
  TGI: 71.3 µM
[21]
  TGI: > 100 µM
[22]
  TGI: > 100 µM
[50]
  TGI: > 100 µM
[23]
  TGI: > 100 µM
[24]
  TGI: > 100 µM
[51]
  TGI: > 100 µM
[29]
  TGI: > 100 µM
[30]
  TGI: > 100 µM
[52]
  TGI: > 100 µM
[31]
  TGI: > 100 µM
[32]
  TGI: 35.7 µM
[33]
  TGI: > 100 µM
[34]
  TGI: > 100 µM
[35]
  TGI: 95.6 µM
[36]
  TGI: > 100 µM
[37]
  TGI: 36.6 µM
[53]
  TGI: 57.1 µM
[38]
  TGI: > 100 µM
[39]
  TGI: 88.3 µM
[41]
  TGI: > 100 µM
[42]
  TGI: > 100 µM
[43]
  TGI: 59 µM
[44]
  TGI: 43.9 µM
[45]
  TGI: > 100 µM
[46]
  TGI: > 100 µM
[47]
  TGI: > 100 µM

## CC1=C(C(=O)CC(=O)C(=O)Nc2cccc(C)c2C)Sc2ccccc2N1
[1]
  TGI: > 100 µM
[2]
  TGI: > 100 µM
[54]
  TGI: > 100 µM
[3]
  TGI: > 100 µM
[4]
  TGI: > 100 µM
[5]
  TGI: > 100 µM
[6]
  TGI: > 100 µM
[7]
  TGI: > 100 µM
[8]
  TGI: > 100 µM
[9]
  TGI: > 100 µM
[11]
  TGI: > 100 µM
[12]
  TGI: > 100 µM
[13]
  TGI: > 100 µM
[14]
  TGI: > 100 µM
[16]
  TGI: > 100 µM
[17]
  TGI: > 100 µM
[18]
  TGI: > 100 µM
[49]
  TGI: > 100 µM
[19]
  TGI: > 100 µM
[20]
  TGI: > 100 µM
[21]
  TGI: > 100 µM
[22]
  TGI: > 100 µM
[50]
  TGI: > 100 µM
[23]
  TGI: > 100 µM
[24]
  TGI: > 100 µM
[55]
  TGI: > 100 µM
[25]
  TGI: > 100 µM
[26]
  TGI: > 100 µM
[51]
  TGI: > 100 µM
[27]
  TGI: > 100 µM
[28]
  TGI: > 100 µM
[29]
  TGI: > 100 µM
[30]
  TGI: > 100 µM
[56]
  TGI: > 100 µM
[52]
  TGI: > 100 µM
[31]
  TGI: > 100 µM
[32]
  TGI: > 100 µM
[33]
  TGI: > 100 µM
[34]
  TGI: > 100 µM
[35]
  TGI: > 100 µM
[37]
  TGI: > 100 µM
[38]
  TGI: > 100 µM
[39]
  TGI: > 100 µM
[40]
  TGI: > 100 µM
[42]
  TGI: > 100 µM
[43]
  TGI: > 100 µM
[44]
  TGI: > 100 µM
[45]
  TGI: > 100 µM
[46]
  TGI: > 100 µM
[47]
  TGI: > 100 µM
[48]
  TGI: > 100 µM
